Tests used:
[1] = system: extracellular 5-HT in the NAc; experiment: Fiber photometry with GRAB5-HT sensor in the NAc of freely moving mice; assay type: in vivo; conditions: for relative GRAB5-HT fluorescence at peak versus saline: t = 700-900 s post injection, drug alone, D-FEN 10, S-4-MC 5, S-4-TFMMC 10 mg kg-1 intraperitoneal
Description: (§1) All in vivo experiments were performed in adult mice (>6 weeks old). For the photometry and microdialysis experiments, which were carried out in Florida, male C57BL/6J mice from The Jackson Laboratory (Bar Harbor, ME, USA) were group-housed in polycarbonate cages (GM500, Tecniplast, Buguggiate, Italy) with lights on from 7 a.m. to 7 p.m. Food and water were provided ad libitum. Photometry and microdialysis experiments were performed in accordance with a protocol approved by the Institutional Animal Care and Use Committee at Florida Atlantic University. For the behavioral experiments, which were carried out in Vienna, C57BL/6N mice from Charles River (Sulzfeld, Germany) were group-housed in polycarbonate cages with lights on from 7 a.m. to 7 p.m. Food and water were provided ad libitum. Behavioral experiments were performed in accordance with a protocol approved by the Austrian national ethical committee on animal care and use (Bundesministerium für Wissenschaft und Forschung: BMWFW-66.009/0016-WF/V/3b/2015). All animal procedures were conducted in agreement with the ARRIVE guidelines and the U.K. Animal (Scientific Procedures) Act, 1986, and associated guidelines, EU Directive 2010/63/EU for animal experiments. Mice were given at least 1 week to acclimate before being used in any experiments.
Mice were anesthetized with isoflurane (5% induction, 2% maintenance) and placed into a stereotaxic frame (Kopf Instruments, Tujunga, CA, USA) oriented in the flat skull position. Ophthalmic ointment was applied to prevent drying of the eyes. Ketoprofen (10 mg kg^−1) was administered subcutaneously (s.c.), whereas bupivacaine and lidocaine were administered locally (s.c.; 100 µl of sterile saline containing 0.05% bupivacaine and 0.2% lidocaine) to the surgical site atop the head. A midline incision was made through the skin on the dorsal surface of the head to expose the skull. Fascia was removed, coordinates for the NAc were determined relative to bregma: anterior/posterior = 1.54 mm; medial/lateral = 0.7 mm; dorsal/ventral = −4.1 mm. A 1 mm burr hole was drilled through the skull. […] For the mice used for fiber photometry, 4*10^12 genome copies of AAV9-hSyn-5-HT2h or 10^10 genome copies of AAV-hSyn-DA2m were delivered into the NAc at an infusion rate of 100 nl min^−1 (total volume of 1 µl) using a 34-gauge needle attached to a 10 µl Nanofil microsyringe (Hamilton, Reno, NV, USA), as previously described. Following injection of the virus, an optical fiber was lowered through the burr hole and secured with glass ionomer cement. Three 1.6 mm screws (00-96X1/16 39052, Plastics One Inc., Roanoke, VA, USA) were affixed to the skull to support a cement stage that was created to secure the implanted guide cannulae or optical fiber. Mice were singly housed following surgery and allowed 6 days of recovery for the microdialysis experiments or 21 days for the photometry experiments. Food and water were available ad libitum.
To monitor light emitted from the G-protein coupled receptor-activation-based 5-HT (GRAB5-HT) and DA (GRABDA) sensors, fiber photometry was performed as described. Briefly, a light emitting diode (465 nm) (CLED_465, Doric Lenses, Quebec, QC, Canada), reflected through a dichroic mirror, was coupled to an optical fiber (200 µm core/225 cladding diameter; Thorlabs, Newton, NJ, USA) that was glued to a metal ferrule (Doric Lenses, Quebec, QC, Canada) and implanted into the NAc as described above. Emitted, band-pass filtered light (500–550 nm, FMC6, Doric Lenses, Quebec,QC, Canada) was detected with a photodetector (Newport Femtowatt silicone PIN; New Focus, San Jose, CA, USA). Data were recorded using a RZ5P lock-in amplifier (Tucker-Davis Technologies, Alachua, FL, USA) controlled with Synapse software. Sinusoidal excitation was delivered at 210 Hz by an LED driver Doric Lenses, LEDD_4) at low power mode. A demodulated signal was low-pass filtered at 6 Hz and digitized at 1017 Hz. […]

C57BL/6N mice = experiment: Open-field test; assay type: in vivo; conditions: indicated doses (1, 5 and 10 mg kg-1) intraperitoneal, 1 h
Description: as §1
For behavioral assays, animals were assigned to treatment groups and injected with test drugs by an unblinded observer.
Mice were placed into an open field arena (27.3 × 27.3 × 27.3 cm) surrounded by infrared beams to track movements. The total distance traveled over 1 h was recorded using Activity Monitor (Med Associates Inc., St. Albans, VT, USA) and interpreted as a measure of the psychostimulant effects. Animal sample size was confirmed using a post hoc analysis of the achieved power using G*Power3.1 [29]. Using a significance level (α) of 0.05 and an effect size f = 1.92 and a sample size of 7.5 animals (5–10)/group we achieved the commonly accepted statistical power (1−β) of 0.8.

Row | Compound | extracellular 5-HT in the NAc (GRAB5-HT fluorescence) ([1]; 5 mg kg-1 intraperitoneal) | 5-HT sensor response on day 1 versus day 2 ([1]; 5 mg kg-1 intraperitoneal, two doses 24 h apart) | extracellular 5-HT in the NAc (GRAB5-HT fluorescence) with co-administered fluoxetine ([1]; 5 mg kg-1 plus fluoxetine 10 mg kg-1 intraperitoneal) | relative GRAB5-HT fluorescence at peak versus saline [1] | horizontal locomotor activity (total distance traveled) in the open field test (C57BL/6N mice) | extracellular 5-HT in the NAc (GRAB5-HT fluorescence) ([1]; 10 mg kg-1 intraperitoneal) | extracellular 5-HT in the NAc (GRAB5-HT fluorescence) with co-administered fluoxetine ([1]; 10 mg kg-1 plus fluoxetine 10 mg kg-1 intraperitoneal)
1 | Cc1ccc(C(=O)[C@H](C)N)cc1 [S-4-MC, 4-methylcathinone] | elevated extracellular 5-HT in the NAc in a time-dependent manner | no significant difference | this effect could be prevented by fluoxetine | Significant effects | did not differ from vehicle | – | –
2 | CN[C@@H](C)C(=O)c1ccc(C(F)(F)F)cc1 [S-4-TFMMC, 4-trifluoromethyl-N-methylcathinone] | – | – | – | Significant effects | did not differ from vehicle | elevated extracellular 5-HT in the NAc in a time-dependent manner | this effect could be prevented by fluoxetine
